Test results: US10745393B2, “Small molecular probes, processes and use thereof” (JAWAHARLAL NEHRU CENTRE FOR ADVANCED SCIENTIFIC RESEARCH, priority 2014, dated 2020)
Like-named read-outs stand apart in the source and are kept apart here. Marks after values point to notes of the source that are not given here.

What was measured:
HEK293 cells = experiment: DNase I and RNase digestion studies; type: cell-based; settings: 2 hours
Procedure: DNase I is known to degrade nuclear DNA while RNase degrades RNA in the cytoplasm by catalyzing phosphodiester bonds cleavage. HEK293 cells are fixed with chilled methanol for about 1 minute at room temperature and permeabilized with 0.1% Triton X-100 in PBS for about 2×5 minutes. After rinsing with PBS twice, for one set of experiments, cells are treated with probe TC (5 μM) for about 15 min at room temperature in three adjacent wells. A total of about 200 μL PBS (as control experiment), about 100 μg/mL DNase I (Sigma), or about 30 μg/ml DNase-Free RNase (GE) is added into the three adjacent wells and incubated at about 37° C. for about 2 hours. For another set of experiments, instead of treating with probe TC, cells are only treated with about 200 μL PBS (as control experiment), about 100 μg/ml DNase I (Sigma), or about 30 μg/mL DNase-Free RNase (GE) by adding into the three adjacent wells and incubating at about 37° C. for about 2 hours. […] After two more washes in PBS with 0.1% Triton X-100, the cover slips are washed in PBS, rinsed in ddH2O and briefly dipped in 100% ethanol. After a quick dry, cover slips are mounted with 70% glycerol. Images are captured using a Carl Zeiss Laser Scanning Microscope (LSM510 META) using an equal exposure time for control, DNase I, and RNase experiments. Experiments are done in duplicate.

DNA [1] = settings: cited from earlier work; for Fluorescence qauntum yield (ΦF) DNA bound dye: Table 3, superscript a, commercial dyes
cells [2] = settings: Table 3, commercial dyes; cited from earlier work
cells [3] = settings: Table 3, commercial dyes; cited from earlier work; remark: listed apart in the source
(AT)20 = experiment: Fluorescence response / quantum yield of probes with dsDNA (AT)20; type: binding; settings: for ΦF with (AT)20: Tris-HCl buffer (100 mM, pH 7.4)
(AT)10 = experiment: Absorption / fluorescence response of probes with dsDNA (AT)10; type: binding; settings: for fluorescence enhancement in presence of (AT)10: probe 10 μM, DNA 0 to 12 μM
(GC)10 = experiment: Fluorescence response / quantum yield of probes with dsDNA (GC)10; type: binding; settings: for fluorescence change in presence of (GC)10: probe 10 μM; for ΦF with (GC)10: Tris-HCl buffer (100 mM, pH 7.4)
[4] = system: ssDNA oligonucleotides (dA10, dT10, dG10 and dC10); experiment: Fluorescence emission in presence of ssDNA oligonucleotides; type: binding; settings: probe 10 μM, Tris-HCl buffer
DNA [5] = experiment: Comparison of DNA dyes: sequence selectivity and fluorescence of free/DNA bound dye; type: binding
[6] = Absorption, emission and quantum yield of probes in Tris-HCl buffer without DNA; type: physicochemical; settings: for ΦF in Buffer: Tris-HCl buffer (100 mM, pH 7.4), absence of DNA; for emission (fluorescence) maxima / absorption maxima: Tris-HCl buffer, no DNA; for emission (fluorescence) maxima: very weak fluorescence; for absorption maxima: probe 10 μM
(D1)mix = experiment: Fluorescence response / quantum yield of probes with dsDNA (D1)mix; type: binding; settings: Tris-HCl buffer (100 mM, pH 7.4)
[7] = biological target: ThT/Aβ42 aggregate complex (Homo sapiens, UniProt P05067); experiment: ThT displacement / FRET assay; type: binding; settings: excess ThT 50 μM; TC 1 μM, Aβ42 50 μM
[8] = system: Aβ plaques in CSF samples; experiment: Detection of amyloid plaques in CSF samples by fluorescence; settings: ThT 20 μM
Procedure: In the present experiment, Amyloid plaques in the CSF sample are detected as it is a hallmark of AD using ThT and QC. […] QC (10 μM) is used to detect Aβ plaques in the same set of CSF samples, which show the same trend as Thioflavin assay and stains CSF3, CSF5, CSF6 and CSF12 samples (FIG. 57 and table 6).

[9] = Absorption, emission and quantum yield of probes without Aβ42 aggregates; type: physicochemical
Aβ42 aggregates = Aβ42 aggregates (Homo sapiens, UniProt P05067); experiment: Absorption / fluorescence response with Aβ42 fibrillar aggregates; type: binding
[10] = fluorescence studies with dsDNAs

Sequence of Aβ42 aggregates (P05067 672-713 limits assumed): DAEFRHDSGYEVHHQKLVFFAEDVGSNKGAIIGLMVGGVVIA
Sequence of ThT/Aβ42 aggregate complex (P05067 672-713 limits assumed, one chain of several): as the sequence (P05067 672-713 limits assumed) above

SMILES: CN1CCN(c2ccc3[nH]c(-c4ccc5[nH]c(-c6ccc(O)cc6)nc5c4)nc3c2)CC1 [Hoechst33258, Hoechst 33258]
- fluorescence nuclear staining after DNase I digestion (HEK293 cells; DNase I about 100 μg/mL): almost completely diminished
- fluorescence nuclear staining after RNase digestion (HEK293 cells; RNase about 30 μg/mL): does not affect the fluorescence staining
- Fluorescence maxima DNA bound dye (DNA [1]): 490/450 nm
- Fluorescence maxima free dye (DNA [1]): 490/450 nm
- Cell permeability (cells [2]): Permeable
- Toxicity (cells [3]): Non-Toxic

SMILES: CC[N+](C)(CC)CCC[n+]1c(-c2ccccc2)c2cc(N)ccc2c2ccc(N)cc21.[I-].[I-] [Propidium iodide]
- comparative fluorescence response in presence of (AT)20 ((AT)20; dye 10 μM, Tris-HCl buffer): do not show appreciable fluorescence changes
- Fluorescence maxima DNA bound dye (DNA [1]; Table 3, commercial dyes): 617 nm
- Fluorescence maxima free dye (DNA [1]; Table 3, commercial dyes): 646 nm
- Fluorescence qauntum yield (ΦF) DNA bound dye (DNA [1]): 0.13^a
- Cell permeability (cells [2]): Impermeable
- Toxicity (cells [3]): Toxic

SMILES: C#CC[n+]1c(/C=C/c2cc3ccc(N(CC)CC)cc3oc2=O)sc2ccccc21 [TCP, (E)-3-(2-(N-(prop-2-ynyl)-benzo[d]thiazol-2-yl)vinyl)-7-(diethylamino)-2H-chromen-2-one]
- probe concentration at which fluorescence saturates ((AT)10; fixed concentration of DNAs ((AT)10, (D1)mix, (D2)mix), FIG. 32): about 5 μM
- fluorescence enhancement in presence of (AT)10 ((AT)10): 6 fold
- fluorescence change in presence of (GC)10 ((GC)10): no change
- emission behaviour in presence of ssDNA [4]: do not show significant changes in the emission behaviour
- preferential binding affinity, AT-sites versus GC-sites (DNA [5]; [10]): towards AT-sites than GC-sites

SMILES: CCN(CC)c1ccc2cc(/C=C/c3cc[n+](C)c4ccccc34)c(=O)oc2c1 [CL, coumarin lepidine]
- ΦF in Buffer [6]: 0.003
- emission (fluorescence) maxima [6]: 689 nm
- absorption maxima [6]: 519 nm
- ΦF with (AT)20 ((AT)20): 0.102
- ΦF with (D1)mix ((D1)mix): 0.052
- ΦF with (GC)10 ((GC)10): 0.007
- preferential binding affinity, AT-sites versus GC-sites (DNA [5]; [10]): towards AT-sites than GC-sites

SMILES: Cc1ccc2c(c1)sc(-c1ccc(N(C)C)cc1)[n+]2C.[Cl-] [ThT, Thioflavin T, reference compound]
- displacement of TC from its complex with Aβ42 aggregates by excess ThT [7]: does not displace TC
- Normalized fluorescence intensity (ThT) ([8]; sample CSF1): 14.35
- Normalized fluorescence intensity (ThT) ([8]; sample CSF2): 5.60
- Normalized fluorescence intensity (ThT) ([8]; sample CSF3): 18.25
- Normalized fluorescence intensity (ThT) ([8]; sample CSF4): 7.45
- Normalized fluorescence intensity (ThT) ([8]; sample CSF5): 40.65
- Normalized fluorescence intensity (ThT) ([8]; sample CSF6): 24.40
- Normalized fluorescence intensity (ThT) ([8]; sample CSF7): 5.75
- Normalized fluorescence intensity (ThT) ([8]; sample CSF8): 8.40
- Normalized fluorescence intensity (ThT) ([8]; sample CSF9): 7.50
- Normalized fluorescence intensity (ThT) ([8]; sample CSF10): 3.26
- Normalized fluorescence intensity (ThT) ([8]; sample CSF11): 8.35
- Normalized fluorescence intensity (ThT) ([8]; sample CSF12): 37.50
- Normalized fluorescence intensity (ThT) ([8]; sample CSF13): 4.20
- Normalized fluorescence intensity (ThT) ([8]; sample CSF14): 4.52

SMILES: CCN(CC)c1ccc2cc(/C=C/c3sc4ccccc4[n+]3CC)c(=O)oc2c1 [TCE, (E)-3-(2-(N-ethyl-benzo[d]thiazol-2-yl)vinyl)-7-(diethylamino)-2H-chromen-2-one]
- fluorescence enhancement in presence of (AT)10 ((AT)10): 5 fold
- fluorescence change in presence of (GC)10 ((GC)10): no appreciable change
- emission behaviour in presence of ssDNA [4]: do not show significant changes in the emission behaviour
- preferential binding affinity, AT-sites versus GC-sites (DNA [5]; [10]): towards AT-sites than GC-sites

SMILES: C[n+]1c(/C=C/c2ccc3ccc4cccc5ccc2c3c45)sc2ccccc21 [TP, thiazole pyrene]
- ΦF in Buffer [6]: 0.002
- emission (fluorescence) maxima [6]: 623 nm
- absorption maxima [6]: 460 nm
- ΦF with (AT)20 ((AT)20): 0.042
- ΦF with (D1)mix ((D1)mix): 0.026
- ΦF with (GC)10 ((GC)10): 0.005
- preferential binding affinity, AT-sites versus GC-sites (DNA [5]): towards AT-sites than GC-sites
- emission maximum in absence of Aβ42 aggregates [9]: 623 nm
- absorption maximum in absence of Aβ42 aggregates ([9]; pH 7.4): 460 nm
- change in absorption and colour with Aβ42 aggregates (Aβ42 aggregates): fails to exhibit any detectable change in absorption
- change in fluorescence in presence of Aβ42 aggregates (Aβ42 aggregates): does not show any detectable change in the fluorescence behavior

SMILES: CC[n+]1c(-c2ccccc2)c2cc(N)ccc2c2ccc(N)cc21 [Ethidium bromide]
- Cell permeability (cells [2]): Impermeable
- Toxicity (cells [3]): Toxic

SMILES: N=C(N)c1ccc(-c2cc3ccc(C(=N)N)cc3[nH]2)cc1 [DAPI, 4′,6-Diamidino-2-phenylindole]
- Fluorescence maxima DNA bound dye (DNA [1]; Table 3, commercial dyes): 450 nm
- Fluorescence maxima free dye (DNA [1]; Table 3, commercial dyes): 496 nm
- Selectivity (DNA [1]; Table 3, commercial dyes): AT rich
- Fluorescence qauntum yield (ΦF) DNA bound dye (DNA [1]): 0.42^a
- Cell permeability (cells [2]): Semi-Permeable
- Toxicity (cells [3]): Non-toxic
